In patent publication US20020028938A1, “Prostaglandin endoperoxide H synthase biosynthesis inhibitors” (priority 1997, published 2002):

Key:
[1] = system: air pouch prostaglandin biosynthesis (Cox-2); experiment: Carrageenan induced air pouch prostaglandin biosynthesis model (CAP); type: in vivo, rat; conditions: for inhibition in vivo at 3 mg/kg: 4 h, read-out: CAP % Inhib. @ 3 mpk; for inhibition in vivo at 3 mg/kg / CAP % Inhib. @ 3 mpk: 3 mpk, rat; for ED50: Rattus norvegicus
Method: To compare the mean responses of the treatment groups, analysis of variance was applied. Percent inhibition values were determined by comparing the individual treatment mean values to the mean of the control group. Linear regression was used to estimate IC50's/ED50's in appropriate assays.
Carrageenan induced air pouch prostaglandin biosynthesis model (CAP) Air pouches are formed in the backs of male Sprague Dawley rats by injecting 20 mL of sterile air on day 0. Three days later the pouch was reinflated with an additional 10 mL of sterile air. On day 7, 1 mL of saline containing 0.2 % lambda carrageenan (Sigma Chemical Co.) is injected into the pouch to induce the inflammatory reaction that is characterized by the release of prostaglandins. Test compounds are dosed at 0.1 to 10 mg/kg 30 minutes prior to carrageenan. Four hours after the carrageenan injection the pouch is lavaged and levels of prostaglandins are determined by enzyme immuno-assay using commercially available kits. […] Values for Cox-2 inhibition that are parenthetical indicate ED50 values.

[2] = biological target: T1, recombinant human Cox-1 (r-hu Cox1) (Homo sapiens, UniProt P23219); experiment: Recombinant human PGHS-1 enzyme assay (RHUCX1); type: biochemical; conditions: read-out: RHUCX1 % Inh. at Dose
T1 construct: made in house; host or cells: baculovirus/Sf9 insect cells (microsomes)
Summary of the method: (§1)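 Recombinant enzyme reaction ran 2.5 minutes at room temperature, then was quenched with HCl and neutralized with NaOH. PGE2 formed with and without drug was quantified by EIA against standards in the same milieu. Percent inhibition versus control mean; IC50 by linear regression.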

[3] = biological target: T2, recombinant human Cox-2 (r-hu Cox-2) (Homo sapiens, UniProt P35354); experiment: Recombinant human PGHS-2 enzyme assay (RHUCX2); type: biochemical; conditions: for IC50: read-out: RHUCX2 IC50 (parenthetical value)
T2 construct: made in house; host or cells: baculovirus/Sf9 insect cells (microsomes)
T2 sequence (P35354 18-604): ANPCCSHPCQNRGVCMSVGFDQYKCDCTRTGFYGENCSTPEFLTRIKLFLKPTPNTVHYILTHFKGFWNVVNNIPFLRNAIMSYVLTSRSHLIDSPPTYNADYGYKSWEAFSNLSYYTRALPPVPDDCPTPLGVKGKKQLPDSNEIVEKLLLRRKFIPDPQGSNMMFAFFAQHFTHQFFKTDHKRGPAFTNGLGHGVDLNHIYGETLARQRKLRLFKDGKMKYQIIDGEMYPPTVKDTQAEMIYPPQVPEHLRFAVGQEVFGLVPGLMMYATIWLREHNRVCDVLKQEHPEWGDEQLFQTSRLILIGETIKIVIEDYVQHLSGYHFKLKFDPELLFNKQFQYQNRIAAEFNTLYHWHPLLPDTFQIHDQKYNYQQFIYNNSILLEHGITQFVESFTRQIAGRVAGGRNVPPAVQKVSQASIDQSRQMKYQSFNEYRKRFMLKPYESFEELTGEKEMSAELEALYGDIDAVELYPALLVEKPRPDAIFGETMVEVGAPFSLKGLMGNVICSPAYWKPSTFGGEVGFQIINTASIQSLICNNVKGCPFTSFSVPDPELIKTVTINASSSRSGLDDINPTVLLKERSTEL
Summary of the method: as §1

[4] = biological target: T3, human amnionic whole cell cyclooxygenase-2 (WISH cells) (Homo sapiens, UniProt P35354); experiment: IL-1β induced PGE2 production in WISH cells; type: cell-based; conditions: read-out: Wish IC50 (parenthetical value)
T3 construct: endogenous in cells; host or cells: human amnionic WISH cells, induced with IL-1beta
T3 sequence (P35354 18-604): T2 sequence (P35354 18-604)
Summary of the method: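 Confluent (80%) WISH cells were stimulated with 5 ng/ml IL-1β in serum-free Neuman-Tytell medium, with or without test compound in DMSO (0.01% v/v). PGE2 in the culture medium was measured by EIA against standards prepared in the same medium, read by optical density.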

[5] = biological target: T4, Human Whole Platelet Cyclooxygenase-1 (Homo sapiens, UniProt P23219); experiment: Human Whole Platelet Cyclooxygenase-1 assay (HWPX); type: cell-based; conditions: for IC50: read-out: HWPX IC50 (parenthetical value)
T4 construct: from tissue; host or cells: human blood: isolated platelets (A4) or heparinised whole blood (A9)
Summary of the method: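 Washed platelets from healthy-donor ACD blood were pre-incubated with compound for 10 min, then stimulated with calcium ionophore A23187 (8.8 μM final) for 10 min. Reaction stopped with cold 6 mM EDTA; thromboxane in supernatants quantified with a commercial kit.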

[6] = read-out: RHUCX2 % Inh. at Dose

T4 sequence (P23219 24-599): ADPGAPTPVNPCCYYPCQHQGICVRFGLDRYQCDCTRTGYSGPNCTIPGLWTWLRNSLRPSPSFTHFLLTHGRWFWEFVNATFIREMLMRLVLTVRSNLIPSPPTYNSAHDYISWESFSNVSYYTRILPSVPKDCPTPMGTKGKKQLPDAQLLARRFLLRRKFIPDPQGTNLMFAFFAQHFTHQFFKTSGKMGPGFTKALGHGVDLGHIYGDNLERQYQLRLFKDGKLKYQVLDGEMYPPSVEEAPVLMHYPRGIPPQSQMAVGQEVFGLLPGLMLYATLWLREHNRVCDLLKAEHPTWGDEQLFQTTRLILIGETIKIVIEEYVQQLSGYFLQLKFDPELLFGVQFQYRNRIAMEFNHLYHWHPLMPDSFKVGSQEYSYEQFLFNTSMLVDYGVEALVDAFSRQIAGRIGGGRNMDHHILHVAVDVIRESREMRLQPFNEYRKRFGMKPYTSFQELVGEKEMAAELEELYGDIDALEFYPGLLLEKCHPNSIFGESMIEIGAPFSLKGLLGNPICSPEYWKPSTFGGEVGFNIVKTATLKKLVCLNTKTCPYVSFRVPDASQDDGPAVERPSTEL
T1 sequence (P23219 24-599): as above

Compound | inhibition in vivo at 3 mg/kg [1] [%] | melting point [°C] | inhibition at 100 µM [2] [%] | IC50 [3] [µM] | IC50 [4] [µM] | IC50 [5] [µM] | further results
CC(C)(C)COc1c(-c2ccc(S(C)(=O)=O)cc2)cnn(-c2ccc(F)c(F)c2)c1=O [Example 349] | 63 | 126 to 128 | 0 | 0.086 | 0.041 |  | inhibition at 100 µM ([5]; 100 μM, read-out: HWPX % Inhib. at Dose): 34%
CC(C)COc1c(-c2ccc(S(N)(=O)=O)cc2)cnn(-c2ccc(F)cc2)c1=O [Example 397, 2-(4-Fluorophenyl)-4-(2-methylpropoxy)-5-[4-(aminosulfonyl)phenyl]-3(2H)-pyridazinone] | 70 | 132 to 136 | 25 |  | 0.04 | 13.8 | inhibition at 0.01 µM [3, 6]: 39%; inhibition at 0.1 µM [3, 6]: 58%; inhibition at 1 µM [3, 6]: 93%
CC(C)COc1c(-c2ccc(S(C)(=O)=O)cc2)cnn(-c2cccc(Cl)c2)c1=O [Example 335, 2-(3-Chlorophenyl)-4-(2-methylpropoxy)-5-[4-(methylsulfonyl)phenyl]-3(2H)-pyridazinone] | 45 | 166 to 169 | 5 | 0.001 | 0.023 |  | 
2-(4-Fluorophenyl)-4-(4-fluorophenoxy)-5-[4-(aminosulfonyl)phenyl]-3(2H)-pyridazinone [Example 385] |  |  |  |  | 0.023 | 2.18 | CAP % Inhib. @ 3 mpk [1]: 65%
CC(C)CCc1c(-c2ccc(S(N)(=O)=O)cc2)cnn(-c2cccc(Cl)c2)c1=O [Example 392, 2-(3-Chlorophenyl)-4-(3-methylbutyl)-5-[4-(aminosulfonyl)phenyl]-3(2H)-pyridazinone] | 60 | 167 to 170 | 56 |  | 0.02 | 1.95 | inhibition at 10 µM [2]: 35%; inhibition at 0.01 µM [3, 6]: 65%; inhibition at 0.1 µM [3, 6]: 82%
CC(C)CCOc1c(-c2ccc(S(C)(=O)=O)cc2)cnn(C(C)(C)C)c1=O [Example 330, 2-(tert-Butyl)-4-(3-methylbutoxy)-5-[4-(methylsulfonyl)phenyl]-3(2H)-pyridazinone] | 4.5 |  | 15 |  | 0.005 | 16.7 | inhibition at 0.01 µM [3, 6]: 5%; inhibition at 0.03 µM ([3]; 0.03 μM, read-out: RHUCX2 % Inh. at Dose): 72%; inhibition at 1 µM [3, 6]: 85%
CC(C)CCOc1c(-c2ccc(S(N)(=O)=O)cc2)cnn(-c2cccc(Cl)c2)c1=O [Example 394, 2-(3-Chlorophenyl)-4-(3-methylbutoxy)-5-[4-(aminosulfonyl)phenyl]-3(2H)-pyridazinone] | 70 | 137 to 139 | 86 |  | 0.019 |  | inhibition at 10 µM [2]: 38%; inhibition at 0.01 µM [3, 6]: 20%; inhibition at 0.1 µM [3, 6]: 64%; inhibition at 1 µM [3, 6]: 94%
NS(=O)(=O)c1ccc(-c2cnn(CC=C(F)F)c(=O)c2-c2ccc(F)cc2)cc1 [Example 143, 2-(3,3-Difluoro-2-propenyl)-4-(4-fluorophenyl)-5-[4-(aminosulfonyl)phenyl]-3(2H)-pyridazinone] | 59 | 191 to 194 | 62 | 0.076 | 0.007 |  | inhibition at 10 µM [2]: 43%
CS(=O)(=O)c1ccc(-c2cnn(-c3cccc(Cl)c3)c(=O)c2Cc2ccccc2)cc1 [Example 367, 2-(3-Chlorophenyl)-4-benzyl-5-[4-(methylsulfonyl)phenyl]-3(2H)-pyridazinone] | 48 | 174 to 177 | 0 | 0.077 | 0.018 |  | inhibition at 0.3 µM ([5]; 0.3 μM, read-out: HWPX % Inhib. at Dose): 8%; inhibition at 1 µM ([5]; 1 μM, read-out: HWPX % Inhib. at Dose): 50%
NS(=O)(=O)c1ccc(-c2cnn(Cc3ccc(F)c(F)c3F)c(=O)c2-c2ccc(F)cc2)cc1 [Example 153, 2-(2,3,4-Trifluorobenzyl)-4-(4-fluorophenyl)-5-[4-(aminosulfonyl)phenyl]-3(2H)-pyridazinone] | 51 | 218 to 220 | 54 | 0.062 | 0.046 | 2.95 | inhibition at 10 µM [2]: 35%
CC(C)CCc1c(-c2ccc(S(C)(=O)=O)cc2)cnn(-c2ccc(F)c(F)c2)c1=O [Example 256] | 47 | 55 to 58 | 0 | 0.134 | 0.028 | 4.7 | 
CC(C)CCc1c(-c2ccc(S(C)(=O)=O)cc2)cnn(-c2cccc(Cl)c2)c1=O [Example 366, 2-(3-Chloropenyl)-4-(3-methylbutyl)-5-[4-(methysulfonyl)phenyl]-3(2H)-pydazinone] | 63 | 60 to 65 | 0 | 0.03 | 0.002 | 1.61 | ED50 [1]: 1.5 mg/kg
CC(C)=CCCOc1c(-c2ccc(S(C)(=O)=O)cc2)cnn(-c2ccc(F)c(F)c2)c1=O [Example 352, 2-(3,4-Difluorophenyl)-4-(4-methyl-3-penten-1-yloxy)-5-[4-(methylsulfonyl)phenyl]-5-3(2H)-pyridazinone] | 89 | 88 to 90 | 0 | 0.154 |  | 5.5 | ED50 [1]: 5 mg/kg
CS(=O)(=O)c1ccc(-c2cnn(-c3ccc(F)c(Cl)c3)c(=O)c2Cc2ccccc2)cc1 [Example 248, 2-(3-Chloro-4-fluorophenyl)-4-benzyl-5-[4-(methylsulfonyl)phenyl]-3(2H)-pyridazinone] | 49 |  | 13 | 0.08 | 0.005 |  | inhibition at 10 µM ([5]; 10 μM, read-out: HWPX % Inhib. at Dose): 17%; inhibition at 30 µM ([5]; 30 μM, read-out: HWPX % Inhib. at Dose): 82%
2-(3-Methyl-2-butenyl)-4-(4-fluorophenyl)-5-[3-fluoro-4-(aminosulfonyl)phenyl]-3(2H)-pyridazinone [Example 123] |  |  |  |  | 0.001 |  | CAP % Inhib. @ 3 mpk [1]: 23%; HWPX % Inhib. at Dose (μM) ([5]; 0.1 μM): 29 @ .1%; HWPX % Inhib. at Dose (μM) ([5]; 1 μM): 90 @ 1%
CS(=O)(=O)c1ccc(-c2cnn(-c3ccc(F)c(Cl)c3)c(=O)c2C2CCCCC2)cc1 [Example 246, 2-(3-Chloro-4-fluorophenyl)-4-cyclohexyl-5-[4-(methylsulfonl)phenyl]-3(2H)-pyridazinone] | 48 |  | 0 | 0.054 | 0.02 |  | 
Cc1cc(-c2c(-c3ccc(S(C)(=O)=O)cc3)cnn(-c3ccc(F)cc3)c2=O)ccc1F [Example 245, 2-(4-Fluorophenyl)-4-(4-fluoro-3-methylphenyl)-5-[4-(methylsulfonyl)phenyl]-3(2H)-pyridazinone] | 47 | 245 to 247 | 9 | 1.38 | 0.046 |  | 
